According to US5422350A, “Nitrogen substituted acridine and cytochrome P450 inhibitors and methods of use” (priority 1992, dated 1995):
Where two headings read alike, the source gives them in different places.

Columns and labels:
P4501A2 = details: co-incubation with tacrine
Method: (§1) Total reaction volume was 3 mL. Reactions were stopped by freezing in liquid nitrogen or dry-ice acetone. […] D. J. Waxman and L. Axaroff, "Phenobarbital induction of cytochrome P-450 Gene Expression", BIOCHEM J, Vol. 281, pp. 577-592 (1992); P. Soucek and I. Gut, supra.

[1] = Method: as §1
[2] = Irreversible protein binding of 14C-tacrine-derived radioactivity, rat liver microsomes; details: 60 min
Method: as §1
C. N. Martin and R. C. Garner: "Covalent Binding In Vitro and In Vivo" in BIOCHEMICAL TOXICOLOGY: A PRACTICAL APPROACH, Eds. K. Snell and B. Mullock, IRL, Wash. D.C. pp. 109-126 (1987).

P450 1A2 [3] = molecular target: T1, P450 1A2 (Homo sapiens, UniProt P05177); assay: in vitro; details: human, microsomes
T1 sequence (P05177 2-516 limits assumed): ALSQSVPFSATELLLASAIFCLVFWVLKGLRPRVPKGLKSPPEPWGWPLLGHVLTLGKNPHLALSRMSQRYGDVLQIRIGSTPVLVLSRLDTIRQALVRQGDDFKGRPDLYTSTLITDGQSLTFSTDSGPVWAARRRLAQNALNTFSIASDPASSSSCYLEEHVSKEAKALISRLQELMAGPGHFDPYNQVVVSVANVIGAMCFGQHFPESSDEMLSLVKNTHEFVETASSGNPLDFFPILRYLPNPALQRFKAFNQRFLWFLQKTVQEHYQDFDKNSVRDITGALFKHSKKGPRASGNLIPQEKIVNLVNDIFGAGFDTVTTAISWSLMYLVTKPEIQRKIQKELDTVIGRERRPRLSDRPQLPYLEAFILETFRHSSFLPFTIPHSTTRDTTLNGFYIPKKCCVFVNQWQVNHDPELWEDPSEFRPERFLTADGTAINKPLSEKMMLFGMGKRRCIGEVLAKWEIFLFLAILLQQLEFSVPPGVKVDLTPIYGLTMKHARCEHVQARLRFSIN
Method: (§2) PHARMACOL., Vol. 42, pp. 767-772 (1990) was conducted. […] The effect of various enoxacin concentrations (8, 20, and 50 μM) on the extent of irreversible binding was examined in a separate study.

P450 1A2 [4] = assay: in vitro
Method: as §2

[5] = Single-dose pharmacokinetic and metabolic disposition study of [14C]tacrine HCl in human male volunteers; assay type: in vivo; details: for mean cumulative fecal recovery of 14C activity / mean cumulative urinary recovery of 14C activity / mean total recovery: 5760 min
Method: Plasma and red blood cells (RBC) were collected predose and for 48 hours postdose. Urine and feces were collected predose and for 96 hours postdose. Urine and plasma samples were analyzed directly by liquid scintillation spectrometry while RBC and fecal samples were solubilized prior to counting. […] Metabolic profiling of urine was performed by HPLC radioactivity detection. Metabolites were identified by HPLC/photodiode array/mass spectrometry.

P450 2D6 = assay: Tacrine as substrate of P450 2D6: co-incubation with quinidine in human liver microsomes; assay type: in vitro ADME; details: for 1-Hydroxytacrine / Tacrine: quinidine -
From the text: U. A. Meyer, J. Gut, T. Kronbach, C. Skoda, U. T. Meier, and T. Catin, "The Molecular Mechanisms of Two Common Polymorphisms of Drug Oxidation-Evidence for Functional Changes in Cytochrome P-450 Isozymes Catalysing Bufuralol and Mephenytoin Oxidation", XENOBIOTICA, Vol 16, pp 449-464 (1986). […] PHARMACOL., Vol 37, pp 155-160 (1989).

[6] = In vitro metabolism of 14C-tacrine in rat liver microsomes; details: for TAC: w/out NADPH
Method: as §1

[7] = Human Prep (letter not given), w/NADPH, 60 min
[8] = I induced Rat, with NADPH, N = 3
[9] = MC induced Rat, with NADPH, N = 3
[10] = Noninduced Rat, with NADPH, N = 3
[11] = PB induced Rat, with NADPH, N = 3
[12] = MC induced Rat, w/NADPH, 60 min
[13] = Noninduced Rat, w/NADPH, 60 min
[14] = PB induced Rat, w/NADPH, 60 min

For `Cl.Nc1c2c(nc3ccccc13)CCCC2.O` [Tacrine, 1,2,3,4-tetrahydro-9-acridinamine monohydrate monohydrochloride], the “effect on 1-hydroxytacrine metabolism by P4501A2” value (P4501A2) was “inhibited”, the 1-OH [1, 7] was 0.750 nmole equivalents and the 4-OH [1, 7] was 0.039 nmole equivalents. For the same compound, the “POLAR UNKS” value [1, 7] was 0.039 nmole equivalents, the UNKS [1, 7] was 0.146 nmole equivalents and the TAC ([1]; Human Prep (letter not given), w/out NADPH, 60 min) was 1.34 nmole equivalents. For the same compound, the 1-OH ([1]; Human Prep C, w/NADPH, 60 min) was 0.599 nmole equivalents, the 2-OH ([1]; Human Prep C, w/NADPH, 60 min) was 0.095 nmole equivalents and the “POLAR UNKS” value ([1]; Human Prep C, w/NADPH, 60 min) was 0.035 nmole equivalents. It also gave a UNKS ([1]; Human Prep C, w/NADPH, 60 min) of 0.139 nmole equivalents, a TAC ([1]; Human Prep C, w/out NADPH, 60 min) of 1.07 nmole equivalents and a 1-OH ([1]; Human Prep D, w/NADPH, 60 min) of 0.201 nmole equivalents. The TAC ([1]; Human Prep D, w/NADPH, 60 min) was 0.803 nmole equivalents, the TAC ([1]; Human Prep D, w/out NADPH, 60 min) was 1.086 nmole equivalents and the extent of metabolism ([1]; human liver preparation D) was “only partial tacrine turnover”. For the same compound, the major product detected ([1]; human liver preparations) was 1-hydroxytacrine with minor amounts of the 2- and 4-hydroxytacrine regioisomers, the extent of metabolism ([1]; human liver preparations B and C, within 60 min) was “completely metabolized” and the “Percent Bound” value [2, 8] was 4.62 ± 0.73%. For the same compound, the “Tacrine equivalents irreversibly bound to 1 mg microsomal protein” value (from here on “Tacrine equivalents irreversibly bound”) [2, 8] was 0.042 ± 0.004 nmol, the “Tacrine equivalents irreversibly bound” value ([2]; I induced Rat, without NADPH) was 0.003 nmol and the “Percent Bound” value [2, 9] was 14.5 ± 0.37%. For the same compound, the “Tacrine equivalents irreversibly bound” value [2, 9] was 0.139 ± 0.010 nmol, the “Tacrine equivalents irreversibly bound” value ([2]; MC induced Rat, without NADPH) was 0.003 nmol and the “Percent Bound” value [2, 10] was 5.97 ± 0.68%. For the same compound, the “Tacrine equivalents irreversibly bound” value [2, 10] was 0.041 ± 0.001 nmol, the “Tacrine equivalents irreversibly bound” value ([2]; Noninduced Rat, without NADPH) was 0.003 nmol and the “Percent Bound” value [2, 11] was 4.49 ± 0.85%. For the same compound, the “Tacrine equivalents irreversibly bound” value [2, 11] was 0.034 ± 0.006 nmol, the “Tacrine equivalents irreversibly bound” value ([2]; PB induced Rat, without NADPH) was 0.002 nmol and the “Tacrine equivalents irreversibly bound” value ([2]; Table 3, MC induced Rat, NADPH, N = 3) was 0.139 ± 0.010 nmol. For the same compound, the Km (P450 1A2 [3]) was < 5 µM, the “irreversible binding of derived radioactivity to microsomal protein” value (P450 1A2 [4]; Table 6, deletion of NADPH) was “no irreversible” and the “Tacrine equivalents irreversibly bound” value (P450 1A2 [4]; Table 6, tacrine 0.3 μM, enoxacin 0.0, 20 min, N = 3, SD) was 0.040. For the same compound, the “Tacrine equivalents irreversibly bound” value (P450 1A2 [4]; tacrine 0.5 μM alone, 5 min, N = 3, SD) was 0.022 ± 0.005 nmol, the “Tacrine equivalents irreversibly bound” value (P450 1A2 [4]; tacrine 0.5 μM alone, 10 min) was 0.048 ± 0.006 nmol and the “Tacrine equivalents irreversibly bound” value (P450 1A2 [4]; tacrine 0.5 μM alone, 20 min) was 0.096 ± 0.006 nmol. The “Tacrine equivalents irreversibly bound” value (P450 1A2 [4]; tacrine 0.5 μM alone, 45 min) was 0.148 ± 0.024 nmol, the “Mean AUC(O-tldc) for tacrine, 1-, 2-, and 4-hydroxytacrine as part of total mean plasma radioactivity AUC(O-tldc)” value ([5]; 10 mg oral) was “approximately 3%” and the “Mean AUC(O-tldc) for tacrine, 1-, 2-, and 4-hydroxytacrine as part of total mean plasma radioactivity AUC(O-tldc)” value ([5]; 40 mg oral) was ~4%. For the same compound, the “mean cumulative fecal recovery of 14C activity” value ([5]; 10-mg oral) was 23.2 % of dose, the “mean cumulative urinary recovery of 14C activity” value ([5]; 10-mg oral) was 56.5 % of dose and the mean total recovery ([5]; 10-mg oral) was 79.4%. For the same compound, the “mean plasma total radioactivity AUC(O-tldc), dose proportionality” value ([5]; 10 and 40 mg oral) was “increased in a dose proportional manner”, the “mean AUC(O-tldc), dose proportionality” value ([5]; 10 and 40 mg oral, plasma) was “increased greater than dose proportionally” and the “difference in metabolic profiles between dose levels” value ([5]; 10 vs 40 mg, urine) was “No apparent differences”. For the same compound, the “mean cumulative fecal recovery of 14C activity” value ([5]; 40-mg oral) was 20.8%, the “mean cumulative urinary recovery of 14C activity” value ([5]; 40-mg oral) was 54.1% and the mean total recovery ([5]; 40-mg oral) was 74.9%. For the same compound, the Tmax ([5]; human, plasma, po, read-out: Time to maximum plasma concentration (tmax)) was ~2 h, the “polar radioactive components, of urinary radioactivity” value ([5]; urine through 24 hours) was 67% and the “unchanged drug excreted in urine” value ([5]; urine through 24 hours) was “only trace amounts of unchanged drug excreted”. For the same compound, the “catalysis by P450 2D6 of metabolism and irreversible binding” value (P450 2D6) was “not catalyzed by P450 2D6”, the 1-Hydroxytacrine (P450 2D6; 0 min) was 0 nMoles per 3 mL incubate and the Tacrine (P450 2D6; 0 min) was 2.13 nMoles per 3 mL incubate. The metabolites observed (P450 2D6; 7-hydroxytacrine at incubation times through 40 min) was “mainly 1-hydroxytacrine with 7-hydroxytacrine also being observed”, the 1-Hydroxytacrine (P450 2D6; 5 min) was 0.416 nMoles per 3 mL incubate and the Tacrine (P450 2D6; 5 min) was 1.24 nMoles per 3 mL incubate. It also gave a 1-Hydroxytacrine (P450 2D6; 10 min) of 0.716 nMoles per 3 mL incubate, a Tacrine (P450 2D6; 10 min) of 0.831 nMoles per 3 mL incubate and a 1-Hydroxytacrine (P450 2D6; 20 min) of 1.03 nMoles per 3 mL incubate. It also gave a Tacrine (P450 2D6; 20 min) of 0.302 nMoles per 3 mL incubate, a 1-Hydroxytacrine (P450 2D6; 40 min) of 1.34 nMoles per 3 mL incubate and a Tacrine (P450 2D6; 40 min) of 0 nMoles per 3 mL incubate. For the same compound, the 1-Hydroxytacrine (P450 2D6; 60 min) was 1.43 nMoles per 3 mL incubate, the Tacrine (P450 2D6; 60 min) was 0 nMoles per 3 mL incubate and the 1-OH ([6]; I induced Rat, w/NADPH, 60 min) was 1.57 nmole equivalents. For the same compound, the “POLAR UNKS” value ([6]; I induced Rat, w/NADPH, 60 min) was 0.083 nmole equivalents, the TAC ([6]; I induced Rat, 60 min) was 1.14 nmole equivalents and the 1-OH [6, 12] was 0.790 nmole equivalents. For the same compound, the 4-OH [6, 12] was 0.018 nmole equivalents, the “POLAR UNKS” value [6, 12] was 0.009 nmole equivalents and the UNKS [6, 12] was 0.091 nmole equivalents. It also gave a TAC ([6]; MC induced Rat, 60 min) of 1.16 nmole equivalents, a 1-OH [6, 13] of 0.994 nmole equivalents and a 2-OH [6, 13] of 0.088 nmole equivalents. For the same compound, the “POLAR UNKS” value [6, 13] was 0.022 nmole equivalents, the TAC ([6]; Noninduced Rat, 60 min) was 1.22 nmole equivalents and the 1-OH [6, 14] was 1.15 nmole equivalents. For the same compound, the 2-OH [6, 14] was 0.144 nmole equivalents, the “POLAR UNKS” value [6, 14] was 0.026 nmole equivalents and the TAC ([6]; PB induced Rat, 60 min) was 1.20 nmole equivalents. For the same compound, the 1-hydroxytacrine produced ([6]; rat vs human preparations) was “more 1-hydroxytacrine produced as compared to human preparations”.
